Laboratory results as given in patent EP4624465A1, “COMPOUND SERVING AS DDR1 KINASE INHIBITOR, AND MEDICINE” (Nippon Shinyaku Co., Ltd., priority 2022, dated 2024).
Structures can show the parent of a compound that is named as a salt.

Columns and labels:
DDR1 kinase [1] = target: T1, DDR1 kinase (Homo sapiens, UniProt Q08345); assay: Evaluation of DDR1 kinase inhibition in DDR1-expressing U2OS cells (type I collagen stimulation, PathHunter detection); format: cell-based; set-up: host or cells: U2OS; conditions: type I collagen 50 µg/mL stimulation, duplicate, read-out: DDR-1 IC50
Procedure: The solution was further diluted in an E-MEM medium (Fujifilm Wako Pure Chemicals, 051-07615) containing 10% fetal bovine serum (FBS, Gibco, 10270106) to 60000, 6000, 600, 60, 6, and 0.6 nM to prepare test substance solutions. 2. […] On the following day, after the plate was left at room temperature for 1 hour, a detection solution was added to the wells at […] according to the handling instructions for the PathHunter® Detection Kit (DiscoverX, 93-0001), and then incubated at room temperature for 2 hours. After the incubation, a luminescence intensity was measured by Envision (Perkin-Elmer). Tests were performed in duplicate. 3.
Target sequence in this assay (Q08345 19-913): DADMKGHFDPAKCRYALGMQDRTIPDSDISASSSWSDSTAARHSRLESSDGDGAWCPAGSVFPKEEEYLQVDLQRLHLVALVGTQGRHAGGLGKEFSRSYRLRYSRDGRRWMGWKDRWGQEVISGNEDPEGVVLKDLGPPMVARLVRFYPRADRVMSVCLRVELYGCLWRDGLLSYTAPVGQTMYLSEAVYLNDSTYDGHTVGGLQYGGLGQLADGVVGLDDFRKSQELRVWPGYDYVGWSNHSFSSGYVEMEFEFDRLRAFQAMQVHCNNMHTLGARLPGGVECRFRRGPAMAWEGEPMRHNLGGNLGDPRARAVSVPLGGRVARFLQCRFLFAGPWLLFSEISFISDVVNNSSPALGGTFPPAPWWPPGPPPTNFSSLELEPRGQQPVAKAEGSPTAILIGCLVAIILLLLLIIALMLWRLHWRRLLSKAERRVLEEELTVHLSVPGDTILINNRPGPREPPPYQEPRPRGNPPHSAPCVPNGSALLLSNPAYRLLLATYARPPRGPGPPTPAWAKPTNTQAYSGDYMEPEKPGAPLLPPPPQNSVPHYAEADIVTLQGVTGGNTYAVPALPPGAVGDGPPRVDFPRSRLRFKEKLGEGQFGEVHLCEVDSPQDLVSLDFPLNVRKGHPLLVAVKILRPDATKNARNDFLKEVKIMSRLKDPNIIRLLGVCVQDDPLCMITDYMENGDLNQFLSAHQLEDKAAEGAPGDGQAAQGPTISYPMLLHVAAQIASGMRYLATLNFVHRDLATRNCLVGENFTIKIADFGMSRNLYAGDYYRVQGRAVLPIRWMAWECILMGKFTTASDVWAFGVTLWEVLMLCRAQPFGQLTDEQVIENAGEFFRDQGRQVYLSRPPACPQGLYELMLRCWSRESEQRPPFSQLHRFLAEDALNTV

DDR1 kinase [2] = target: T1, DDR1 kinase; assay: Evaluation of DDR1 kinase inhibition (LANCE Ultra TR-FRET kinase assay); format: biochemical; set-up: purchased Carna Biosciences 08-113; conditions: DDR1 protein 0.5 nM, LANCE Ultra ULight-poly GAT substrate, 2 hours at room temperature, duplicate; read-out: DDR-1 IC50
Target sequence in this assay (Q08345 19-876 isoform Q08345-2 limits assumed): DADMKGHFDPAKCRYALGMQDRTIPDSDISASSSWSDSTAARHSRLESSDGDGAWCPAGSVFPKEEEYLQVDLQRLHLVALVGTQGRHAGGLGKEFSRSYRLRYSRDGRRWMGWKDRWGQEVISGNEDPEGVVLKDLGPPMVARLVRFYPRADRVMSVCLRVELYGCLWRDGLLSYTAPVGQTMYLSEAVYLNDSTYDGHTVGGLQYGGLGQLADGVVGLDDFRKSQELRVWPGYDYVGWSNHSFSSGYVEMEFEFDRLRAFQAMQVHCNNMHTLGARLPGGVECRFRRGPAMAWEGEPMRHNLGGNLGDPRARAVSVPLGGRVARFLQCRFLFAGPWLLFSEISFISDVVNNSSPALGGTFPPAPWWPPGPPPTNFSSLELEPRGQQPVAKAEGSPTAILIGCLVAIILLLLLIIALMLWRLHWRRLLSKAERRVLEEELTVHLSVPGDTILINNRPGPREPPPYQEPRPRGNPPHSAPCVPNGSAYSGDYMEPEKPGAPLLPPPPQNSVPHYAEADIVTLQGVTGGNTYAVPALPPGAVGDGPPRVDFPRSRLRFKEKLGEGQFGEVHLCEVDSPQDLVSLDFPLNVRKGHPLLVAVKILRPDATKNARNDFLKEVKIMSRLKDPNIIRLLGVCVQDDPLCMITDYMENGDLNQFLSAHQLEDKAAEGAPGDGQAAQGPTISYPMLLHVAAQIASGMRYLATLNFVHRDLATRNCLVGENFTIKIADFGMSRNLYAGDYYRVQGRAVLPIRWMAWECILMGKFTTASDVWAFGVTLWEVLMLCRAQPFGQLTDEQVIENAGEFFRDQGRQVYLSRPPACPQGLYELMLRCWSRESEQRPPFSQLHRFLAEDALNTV

SMILES | IC50 (DDR1 kinase [1]) [nM] | IC50 (DDR1 kinase [2]) [nM]
Cc1c(C(=O)N2CC(c3nn(CC(=O)N4CCO[C@@H](C(F)(F)F)C4)c4ccccc34)C2)ccnc1N [Compound E-8, 2-{3-[1-(2-amino-3-methylpyridine-4-carbonyl)azetidin-3-yl]-1H-indazol-1-yl}-1-[(2R)-2-(trifluoromethyl)morpholin-4-yl]ethan-1-one] | 230 | 5.2
Nc1cc(C(=O)N2CC(c3cn(CC(=O)N4CCC[C@H]4C(F)(F)F)c4ccccc34)C2)ccn1 [Compound E-11, 2-{3-[1-(2-aminopyridine-4-carbonyl)azetidin-3-yl]-1H-indol-1-yl}-1-[(2S)-2-(trifluoromethyl)pyrrolidin-1-yl]ethan-1-one] | 110 | 6.1
Cc1ccc2c(n1)c(C1CN(C(=O)c3ccnc(N)c3)C1)nn2CC(=O)N1CCC[C@H]1C(F)(F)F [Compound E-12, 2-{3-[1-(2-aminopyridine-4-carbonyl)azetidin-3-yl]-5-methyl-1H-pyrazolo[4,3-b]pyridin-1-yl}-1-[(2S)-2-(trifluoromethyl)pyrrolidin-1-yl]ethan-1-one] | 330 | 7.5
Nc1cc(C(=O)N2CC(c3nn(CC(=O)N4CCC[C@H]4C(F)(F)F)c4ccncc34)C2)ccn1 [Compound E-13, 2-{3-[1-(2-aminopyridine-4-carbonyl)azetidin-3-yl]-1H-pyrazolo[4,3-c]pyridin-1-yl]-1-[(2S)-2-(trifluoromethyl)pyrrolidin-1-yl]ethan-1-one hydrochloride] | 1200 | 47
Cc1ccnc2c1c(C1CN(C(=O)c3ccnc(N)c3)C1)nn2CC(=O)N1CCC[C@H]1C(F)(F)F [Compound E-15, 2-{3-[1-(2-aminopyridine-4-carbonyl)azetidin-3-yl]-4-methyl-1H-pyrazolo[3,4-b]pyridin-1-yl}-1-[(2S)-2-(trifluoromethyl)pyrrolidin-1-yl]ethan-1-one] | 2600 | 210
Nc1cc(C(=O)N2CC(c3nn(CC(=O)N4CCC[C@H]4C(F)(F)F)c4cc(F)cc(F)c34)C2)cnn1 [Compound E-16, 2-{3-[1-(6-aminopyridazine-4-carbonyl)azetidin-3-yl]-4,6-difluoro-1H-indazol-1-yl)-1-[(2S)-2-(trifluoromethyl)pyrrolidin-1-yl]ethan-1-one] | 720 | 15
Nc1cc(C(=O)N2CC(c3nn(Cc4nc(C(F)(F)F)no4)c4ccccc34)C2)c(F)cn1 [Compound E-18, 5-fluoro-4-[3-(1-{[3-(trifluoromethyl)-1,2,4-oxadiazol-5-yl]methyl}-1H-indazol-3-yl)azetidine-1-carbonyl]pyridin-2-amine] | 26 | 6.9
Nc1cc(C(=O)N2CC(c3nn(Cc4cn(CC5CC(F)(F)C5)nn4)c4cccc(F)c34)C2)ccn1 [Compound E-19, 4-{3-[1-({1-[(3,3-difluorocyclobutyl)methyl]-1H-1,2,3-triazol-4-yl}methyl)-4-fluoro-1H-indazol-3-yl]azetidine-1-carbonyl}pyridin-2-amine hydrochloride] | 84 | 56
Nc1ncc(F)c(C(=O)N2CC(c3nn(CC(=O)N4CCC[C@H]4C(F)(F)F)c4ccccc34)C2)n1 [Compound E-22, 2-{3-[1-(2-amino-5-fluoropyrimidine-4-carbonyl)azetidin-3-yl]-1H-indazol-1-yl}-1-[(2S)-2-(trifluoromethyl)pyrrolidin-1-yl]ethan-1-one] | 18 | 5.6
CN(CC(F)(F)F)C(=O)Cn1nc(C2CN(C(=O)c3ccnc(N)n3)C2)c2cc(F)c(F)cc21 [Compound E-282, 2-{3-[1-(2-aminopyrimidine-4-carbonyl)azetidin-3-yl]-5,6-difluoro-1H-indazol-1-yl}-N-methyl-N-(2,2,2-trifluoroethyl)acetamide] |  | 52
Nc1nccc(C(=O)N2CC(c3nn(CC(=O)N4CCC[C@H]4C(F)(F)F)c4cc(F)c(F)cc34)C2)n1 [Compound E-283, 2-{3-[1-(2-aminopyrimidine-4-carbonyl)azetidin-3-yl]-5,6-diffuoro-1H-indazol-1-yl}-1-[(2S)-2-(trifluoromethyl)pyrrolidin-1-yl}ethan-1-one] |  | 4.5
CN(CC(F)(F)F)C(=O)Cn1nc(C2CN(C(=O)c3ccnc(N)n3)C2)c2ccc(F)cc21 [Compound E-284, 2-{3-[1-(2-aminopyrimidine-4-carbonyl)azetidin-3-yl]-6-fluoro-1H-indazol-1-yl}-N-methyl-N-(2,2,2-trifluoroethyl)acetamide] |  | 54
Nc1nccc(C(=O)N2CC(c3nn(CC(=O)N4CCC[C@H]4C(F)(F)F)c4cc(F)ccc34)C2)n1 [Compound E-286, 2-{3-[1-(2-aminopyrimidine-4-carbonyl)azetidin-3-yl]-6-fluoro-1H-indazol-1-yl}-1-[(2S)-2-(trifluoromethyl)pyrrolidin-1-yl]ethan-1-one] |  | 5
CN(CC(F)(F)F)C(=O)Cn1nc(C2CN(C(=O)c3ccnc(N)n3)C2)c2c(Cl)c(F)ccc21 [Compound E-287, 2-{3-(1-(2-aminopyrimidine-4-carbonyl)azetidin-3-yl]-4-chloro-5-fluoro-1H-indazol-1-yl}-N-methyl-N-(2,2,2-trifluoroethyl)acetamide] |  | 7.8
Cc1ccc2c(c1)c(C1CN(C(=O)c3ccnc(N)n3)C1)nn2CC(=O)N(C)CC(F)(F)F [Compound E-288, 2-{3-[1-(2-aminopyrimidine-4-carbonyl)azetidin-3-yl]-5-methyl-1H-indazol-1-yl}-N-methyl-N-(2,2,2-trifluoroethyl)acetamide] |  | 14
CN(CC(F)(F)F)C(=O)Cn1nc(C2CN(C(=O)c3ccnc(N)n3)C2)c2c(F)cc(F)cc21 [Compound E-289, 2-{3-[1-(2-aminopyrimidine-4-carbonyl)azetidin-3-yl]-4,6-difluoro-1H-indazol-1-yl)-N-methyl-N-(2,2,2-trifluoroethyl)acetamide] |  | 45
CN(CC(F)(F)F)C(=O)Cn1nc(C2CN(C(=O)c3ccnc(N)n3)C2)c2cc(F)ccc21 [Compound E-293, 2-{3-[1-(2-aminopyrimidine-4-carbonyl)azetidin-3-yl]-5-fluoro-1H-indazol-1-yl]-N-methyl-N-(2,2,2-trifluoroethyl)acetamide] |  | 26
CC1(C)CCc2c(c(C3CN(C(=O)c4ccnc(N)n4)C3)nn2CC(=O)N2CCC[C@H]2C(F)(F)F)C1 [Compound E-295, 2-{3-[1-(2-aminopyrimidine-4-carbonyl)azetidin-3-yl]-5,5-dimethyl-4,5,6,7-tetrahydro-1H-indazol-1-yl}-1-[(2S)-2-(trifluoromethyl)pyrrolidin-1-yl]ethan-1-one] |  | 160

Molecules with a lower IC50 (DDR1 kinase [2]), results first:

IC50 (DDR1 kinase [1]) [nM] | IC50 (DDR1 kinase [2]) [nM] | SMILES
78 | 0.4 | O=C(Cn1nc(C2CN(C(=O)c3ccnc(NC4CC4)c3)C2)c2c(Cl)c(F)ccc21)NCC(F)(F)F [Compound E-1, 2-(4-chloro-3-{1-[2-(cycloropylamino)pyridine-4-carbonyl]azetidin-3-yl}-5-fluoro-1H-indazol-1-yl)-N-(2,2,2-trifluoroethyl)acetamide hydrochloride]
55 | 2 | CN(CC(F)(F)F)C(=O)Cn1nc(C2CN(C(=O)c3ccnc(N)n3)C2)c2cc(Cl)ccc21 [Compound E-4, 2-{3-[1-(2-aminopyrimidine-4-carbonyl)azetidin-3-yl]-5-chloro-1H-indazol-1-yl}-N-methyl-N-(2,2,2-trifluoroethyl)acetamide]
140 | 1.5 | CN(CC(F)(F)F)C(=O)Cn1nc(C2CN(C(=O)c3nc(N)ncc3F)C2)c2cc(Cl)ccc21 [Compound E-21, 2-{3-[1-(2-amino-5-fluoropyrimidine-4-carbonyl)azetidin-3-yl]-5-chloro-1H-indazol-1-yl}-N-methyl-N-(2,2,2-trifluoroethyl)acetamide]
74 | 4.1 | O=C(Cn1nc(C2CN(C(=O)c3ccnc(NC4CC4)c3)C2)c2c(F)cc(F)cc21)NCC(F)(F)F [Compound E-30, 2-(3-{1-[2-(cyclopropylamino)pyridine-4-carbonyl]azetidin-3-yl}-4,6-difluoro-1H-indazol-1-yl)-N-(2,2,2-trifluoroethyl)acetamide hydrochloride]
 | 1.3 | Nc1cc(C(=O)N2CC(F)(c3nn(CC(=O)N4CCC[C@H]4C(F)(F)F)c4ccccc34)C2)c(F)cn1 [Compound E-285, 2-(3-[1-(2-amino-5-fluoropyridine-4-carbonyl)-3-fluoroazetidin-3-yl]-1H-indazol-1-yl}-1-[(2S)-2-(trifluoromethyl)pyrrolidin-1-yl]ethan-1-one]
 | 1.6 | Nc1nccc(C(=O)N2CC(c3nn(CC(=O)N4CCC[C@H]4C(F)(F)F)c4ccc(Cl)cc34)C2)n1 [Compound E-290, 2-{3-[1-(2-aminopyrimidine-4-carbonyl)azetidin-3-yl]-5-chloro-1H-indazol-1-yl}-1-[(28)-2-(trifluoromethyl)pyrrolidin-1-yl]ethan-1-one]
 | 2.6 | COc1ccc2c(c1)c(C1CN(C(=O)c3cc(N)ncc3F)C1)nn2CC(=O)N1CCC[C@H]1C(F)(F)F [Compound E-291, 2-(3-(1-(2-amino-5-fluoropyridine-4-carbonyl)azetidin-3-yl]-5-methoxy-1H-indazol-1-yl}·1-[(2S)-2-(trifluoromethyl)pyrrolidin-1-yl]ethan-1-one]
 | 2.3 | Cc1ccc2c(c1)c(C1CN(C(=O)c3ccnc(N)n3)C1)nn2CC(=O)N1CCC[C@H]1C(F)(F)F [Compound E-292, 2-{3-[1-(2-aminopyrimidine-4-carbonyl)azetidin-3-yl]-5-methyl-1H-indazol-1-yl]-1-[(2S)-2-(trifluoromethyl)pyrrolidin-1-yl]ethan-1-one]
